Here are results for 25 molecules from patent US12649733B2, “3,6-diamino-pyridazin-3-yl derivatives, pharmaceutical compositions containing them and their uses as pro-apoptotic agents” (LES LABORATOIRES SERVIER, priority 2019, dated 2026).

For one test, the system named is H146 cells. As to the kind of experiment: H146 cell viability, MTT assay. Type of test: cell-based. The note with it: Homo sapiens, NCI-H146, 48 h, 48 h exposure. The procedure:
(§1) MTT colorimetric assay is based on the mitochondrial reduction of tetrazolium salt by living cells. The viable cell number is proportional to the production of formazan salts, which can be read spectrophotometrically at 540 nm.
(§2) MOLT-4 and H146 cells were purchased from ATCC and cultivated in RPMI 1640 supplemented with 10% heat inactivated fetal bovine serum, penicillin (100 IU/ml), streptomycin (100 μg/ml) and L-glutamine (2 mM). Cells were cultured at 37° C. in a humidified atmosphere containing 5% CO2. Cells were seeded in 96 microwell plates (150 μL per well) and exposed to the compounds for 48 h (3.16 fold serially diluted; 9 concentrations each, triplicates). At the end of incubation time, 15 μL of MTT solution (5 mg/ml) were added per well and the cells were incubated for another 4 h. Then, 100 μL of 10% Sodium Dodecyl Sulfate (SDS)/HCl 10 mM were added per well and the plate was incubated overnight, before measurement of optical density at 540 nm. IC50s were calculated using standard four-parametric curve fitting.

The target of the next test is BCLXL (Homo sapiens, UniProt Q07817, V10N/V9A). As to the kind of experiment: Fluorescence polarisation assay (PUMA-based probe displacement). Also: 20 nM protein, 10 nM fluorescent probe. Type of test: binding. The procedure: Fluorescence polarization measures the rotation of a fluorescing species in solution, the larger the molecule the more polarized the fluorescence emission.
Sequence of BCLXL (Q07817 with tags, fused parts or gaps V9A/V10N): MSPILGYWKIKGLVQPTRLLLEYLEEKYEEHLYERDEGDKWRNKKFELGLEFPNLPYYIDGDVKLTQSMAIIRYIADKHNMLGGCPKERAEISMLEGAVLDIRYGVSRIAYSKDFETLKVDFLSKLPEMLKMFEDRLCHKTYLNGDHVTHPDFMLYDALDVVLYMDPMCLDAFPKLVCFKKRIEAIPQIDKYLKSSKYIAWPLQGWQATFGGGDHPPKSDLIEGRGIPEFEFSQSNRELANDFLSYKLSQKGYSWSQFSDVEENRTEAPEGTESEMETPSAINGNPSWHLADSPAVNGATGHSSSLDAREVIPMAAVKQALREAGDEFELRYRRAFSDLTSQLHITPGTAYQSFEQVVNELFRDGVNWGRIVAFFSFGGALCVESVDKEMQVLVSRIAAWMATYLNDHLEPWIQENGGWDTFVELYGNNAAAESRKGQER
[[…]] (GST UniProtKB® primary accession number P08515 and BCLXL UniProtKB® primary accession number Q07817-1),
resulting in an increase in anisotropy. If a compound is added which competitively binds to the same site as the probe, thereby releasing it, anisotropy decreases due to the increased amount of free probe.
An 11-point serial dilution of each compound was prepared in DMSO, the final buffer conditions were 10 mM 4-(2-hydroxyethyl)-1-piperazineethanesulfonic acid [HEPES], 150 mM NaCl, 0.05% Tween 20, pH 7.4 and 5% DMSO. The final protein concentration in the assay was 20 nM with the fluorescent probe present at 10 nM. The experiments were incubated for 2 hours at 23° C. before fluorescence polarization was measured on a Biotek SynergyNeo plate reader (Excitation 485 nm, emission 525 nm, parallel and perpendicular reads). […] The KI values were determined from the IC50 values according to Cer et al, Nucleic Acids Res, 2009, Jul. 1: 37(WebServer issue): W441-W445.

The test system of a further test is MOLT-4 cells. As to the kind of experiment: MOLT-4 cell viability, MTT assay. Format: cell-based. The note with it: Homo sapiens, MOLT-4, 48 h, 48 h exposure. On the procedure: as §1, §2

Molecules are shown by their SMILES. A value given as a limit tells only on which side of the number the result lay.

`Cc1c(Nc2nc(C(=O)O)cs2)nnc(Nc2nc3ccccc3s2)c1C` [Example 1]: the IC50 with H146 cells was 15000 nM. With `O=C(O)c1csc(Nc2ccc(Nc3nc4ccccc4s3)nn2)n1` [Example 4, 2-({6-[(1,3-Benzothiazol-2-yl)amino]pyridazin-3-yl}amino)-1,3-thiazole-4-carboxylic acid], the Ki at BCLXL stood at 910 nM. Molecule `Cc1cc(Nc2nc(C(=O)O)cs2)nnc1Nc1nc2ccccc2s1` [Example 7, 2-({6-[(1,3-Benzothiazol-2-yl)amino]-5-methylpyridazin-3-yl}amino)-1,3-thiazole-4-carboxylic acid] registered a half-inhibitory concentration (IC50) with H146 cells of over 15000 nM. Turning to `Cc1cc(Nc2nc3ccccc3s2)nnc1Nc1nc(C(=O)O)cs1` [Example 11, 2-({6-[(1,3-Benzothiazol-2-yl)amino]-4-methylpyridazin-3-yl}amino)-1,3-thiazole-4-carboxylic acid], the Ki at BCLXL was 600 nM. For `O=C(O)c1csc(Nc2nnc(Nc3nc4ccccc4s3)c3c2CCCC3)n1` [Example 17, 2-[[4-(1,3-Benzothiazol-2-ylamino)-5,6,7,8-tetrahydrophthalazin-1-yl]amino]thiazole-4-carboxylic acid], the results for the IC50 in the test with MOLT-4 cells and in the test with H146 cells were 7880 nM and 13400 nM, respectively.

On to `Cc1c(Nc2nc(C(=O)O)cs2)nnc(Nc2nc3ccccc3s2)c1C1CC1` [Example 20, 2-({6-[(1,3-Benzothiazol-2-yl)amino]-5-cyclopropyl-4-methylpyridazin-3-yl}amino)-1,3-thiazole-4-carboxylic acid], for which the IC50 is 7210 nM with MOLT-4 cells and 3350 nM in the test with H146 cells. Take `Cc1cc(N(C)c2nc(C(=O)O)cs2)nnc1Nc1nc2ccccc2s1` [Example 21, 2-({6-[(1,3-Benzothiazol-2-yl)amino]-5-methylpyridazin-3-yl}(methyl)amino)-1,3-thiazole-4-carboxylic acid]: in the test on H146 cells, the IC50 turned out to be 9580 nM. As for `Cc1c(Nc2nc3ccccc3s2)nnc(N(C)c2nc(C(=O)O)cs2)c1C` [Example 26, 2-({6-[(1,3-Benzothiazol-2-yl)amino]-4,5-dimethylpyridazin-3-yl}(methyl)amino)-1,3-thiazole-4-carboxylic acid], the IC50 in the test on MOLT-4 cells and in the test with H146 cells was over 15000 nM in each case. Take `COCc1c(Nc2nc(C(=O)O)cs2)nnc(Nc2nc3ccccc3s2)c1C` [Example 29, 2-({6-[(1,3-Benzothiazol-2-yl)amino]-4-(methoxymethyl)-5-methylpyridazin-3-yl}amino)-1,3-thiazole-4-carboxylic acid]: the IC50 with MOLT-4 cells and in the test on H146 cells was over 15000 nM in each case.

With `COCCCC1(Cn2ncc(-c3sc(N(C)c4cc(C)c(Nc5nc6ccccc6s5)nn4)nc3C(=O)O)c2C)CCCCCCC1` [Example 43, 2-({6-[(1,3-Benzothiazol-2-yl)amino]-5-methylpyridazin-3-yl}(methyl)amino)-5-(1-{[1-(3-methoxypropyl)cyclooctyl]methyl}-5-methyl-1H-pyrazol-4-yl)-1,3-thiazole-4-carboxylic acid], the inhibitory constant (Ki) at BCLXL is 19 nM. As for `Cc1c(Nc2nc(C(=O)O)cs2)nnc(Nc2nc3c(C)cccc3s2)c1C` [Example 48, 2-[[4,5-dimethyl-6-[(4-methyl-1,3-benzothiazol-2-yl)amino]pyridazin-3-yl]amino]thiazole-4-carboxylic acid], the Ki at BCLXL stood at 1900 nM. Turning to `Cc1c(Nc2nc3ccccc3s2)nnc(Nc2nc(C(=O)O)cs2)c1CCCN1CCN(C)CC1` [Example 51, 2-({6-[(1,3-Benzothiazol-2-yl)amino]-5-methyl-4-[3-(4-methylpiperazin-1-yl)propyl]pyridazin-3-yl}amino)-1,3-thiazole-4-carboxylic acid], the IC50 in the test on MOLT-4 cells and with H146 cells was over 15000 nM in each case. For the molecule `Cc1c(Nc2nc(C(=O)O)cs2)nnc(Nc2nc3c(F)cccc3s2)c1C` [Example 55, 2-[[6-[(4-Fluoro-1,3-benzothiazol-2-yl)amino]-4,5-dimethyl-pyridazin-3-yl]amino]thiazole-4-carboxylic acid], the Ki at BCLXL was 82 nM. `Cc1cc(N(C)c2nc(C(=O)O)c(N3CC(O)C3)s2)nnc1Nc1nc2ccccc2s1` [Example 72, 2-({6-[(1,3-Benzothiazol-2-yl)amino]-5-methylpyridazin-3-yl}(methyl)amino)-5-(3-hydroxyazetidin-1-yl)-1,3-thiazole-4-carboxylic acid]: the inhibitory constant (Ki) on BCLXL came out at 160 nM.

As for `Cc1cc(N(C)c2nc(C(=O)O)c(N3CC[C@@H](Oc4ccccc4)C3)s2)nnc1Nc1nc2ccccc2s1` [Example 79, 2-({6-[(1,3-Benzothiazol-2-yl)amino]-5-methylpyridazin-3-yl}(methyl)amino)-5-[(3R)-3-phenoxypyrrolidin-1-yl]-1,3-thiazole-4-carboxylic acid], on BCLXL, the Ki was determined as 92 nM. `Cc1cc(N(C)c2nc(C(=O)O)c(N3CCCCC3)s2)nnc1Nc1nc2ccccc2s1` [Example 80, 2-({6-[(1,3-Benzothiazol-2-yl)amino]-5-methylpyridazin-3-yl}(methyl)amino)-5-(piperidin-1-yl)-1,3-thiazole-4-carboxylic acid]: at BCLXL, the Ki was found to be 80 nM. Consider `Cc1cc(N(C)c2nc(C(=O)O)c(N3CCC(Oc4ccccc4)CC3)s2)nnc1Nc1nc2ccccc2s1` [Example 81, 2-({6-[(1,3-Benzothiazol-2-yl)amino]-5-methylpyridazin-3-yl}(methyl)amino)-5-(4-phenoxypiperidin-1-yl)-1,3-thiazole-4-carboxylic acid], for which, at BCLXL, the Ki is 16 nM. Regarding `Cc1cc(N(C)c2nc(C(=O)O)c(C3CCN(C)CC3)s2)nnc1Nc1nc2ccccc2s1` [Example 99, 2-({6-[(1,3-Benzothiazol-2-yl)amino]-5-methylpyridazin-3-yl}(methyl)amino)-5-(1-methylpiperidin-4-yl)-1,3-thiazole-4-carboxylic acid], on BCLXL, the Ki is 2400 nM.

As for `Cc1cc(N(CC(O)CO)c2nc(C(=O)O)cs2)nnc1Nc1nc2ccccc2s1` (stereo not shown) [Example 103, 2-[[6-(1,3-Benzothiazol-2-ylamino)-5-methyl-pyridazin-3-yl]-(2,3-dihydroxypropyl)amino]thiazole-4-carboxylic acid], on BCLXL, the Ki was 14 nM.

For the molecule `Cc1cc(N(CCCC(O)CO)c2nc(C(=O)O)cs2)nnc1Nc1nc2ccccc2s1` (stereo not shown) [Example 104, 2-[[6-(1,3-Benzothiazol-2-ylamino)-5-methyl-pyridazin-3-yl]-(4,5-dihydroxypentyl)amino]thiazole-4-carboxylic acid], the Ki at BCLXL was found to be 16 nM. On to `Cc1cc(N(CC(CO)N2CCOCC2)c2nc(C(=O)O)cs2)nnc1Nc1nc2ccccc2s1` (stereo not shown) [Example 107, 2-[[6-(1,3-Benzothiazol-2-ylamino)-5-methyl-pyridazin-3-yl]-(3-hydroxy-2-morpholino-propyl)amino]thiazole-4-carboxylic acid], for which the Ki at BCLXL came out at 130 nM. Consider `CNCC#Cc1ccc(OCCCc2sc(N(CCCC(O)CN(C)CCP(=O)(O)O)c3cc(C)c(Nc4nc5ccccc5s4)nn3)nc2C(=O)O)c(F)c1` (stereo not shown) [Example 196, 2-[[6-(1,3-Benzothiazol-2-ylamino)-5-methyl-pyridazin-3-yl]-[4-hydroxy-5-[methyl(2-phosphonoethyl)amino]pentyl]amino]-5-[3-[2-fluoro-4-[3-(methylamino)prop-1-ynyl]phenoxy]propyl]thiazole-4-carboxylic acid], for which the IC50 in the test on MOLT-4 cells amounted to 879 nM; in the test on H146 cells, 1620 nM. As to `CNCC#Cc1ccc(OCCCc2sc(N(CCC[N+](C)(C)C)c3cc(C)c(Nc4nc5ccccc5s4)nn3)nc2C(=O)[O-])c(F)c1` [Example 202, 2-[[6-(1,3-Benzothiazol-2-ylamino)-5-methyl-pyridazin-3-yl]-[3-(trimethylammonio)propyl]amino]-5-[3-[2-fluoro-4-[3-(methylamino)prop-1-ynyl]phenoxy]propyl]thiazole-4-carboxylate], the values for the IC50 with MOLT-4 cells and in the test on H146 cells were 611 nM and 74.8 nM, respectively. In the same order, the values of `CNCC#Cc1ccc(OCCCc2sc(N(CCCCN(C)C)c3cc(C)c(Nc4nc5ccccc5s4)nn3)nc2C(=O)O)c(F)c1` [Example 210, 2-[[6-(1,3-Benzothiazol-2-ylamino)-5-methyl-pyridazin-3-yl]-[4-(dimethylamino)butyl]amino]-5-[3-[2-fluoro-4-[3-(methylamino)prop-1-ynyl]phenoxy]propyl]thiazole-4-carboxylic acid] are 20.3 nM and 21.4 nM. Turning to `CNCC#Cc1ccc(OCCCc2sc(N(CCCCC[N+](C)(C)C)c3cc(C)c(Nc4nc5ccccc5s4)nn3)nc2C(=O)O)c(F)c1` [Example 219, 2-[[6-(1,3-Benzothiazol-2-ylamino)-5-methyl-pyridazin-3-yl]-[5-(trimethylammonio)pentyl]amino]-5-[3-[2-fluoro-4-[3-(methylamino)prop-1-ynyl]phenoxy]propyl]thiazole-4-carboxylate], the IC50 with MOLT-4 cells amounted to 1270 nM; in the test with H146 cells it was 129 nM.
